Experimental findings from US20250026725A1, “HYDRATE CRYSTAL OF 5-CHLORO-4-(3-CHLORO-4- METHYLPHENYL)-1H-IMIDAZOLE-2-CARBONITRILE” (ISHIHARA SANGYO KAISHA, LTD., priority 2021, published 2025) are described below.

Structures are written as SMILES.

A short description of one data set: Drying test. Format: physicochemical. To be noted: 25° C., dried (silica gel), weighing bottle. Here is the method:
The hydrate crystal of Production Example 1 was stored at 25° C. under a dried condition (in the presence of silica gel) for a period shown in Table 2. The Karl Fischer moisture content after storage was measured, and the change in moisture content was observed.

Another data set can be described thus: Moisture absorption test. Format: physicochemical. To be noted: 60° C./80% RH, paper bag. Here is the method:
An anhydrous crystal sample was placed in a container (glass weighing bottle or paper bag) in such a manner that it was in direct contact with the damp. […] In addition, a sample for the hydrate crystal (Production Example 1) was also preserved at 60° C./80% RH, and the change in moisture content was observed through the change in weight or Karl Fischer moisture measurement.

Data set [1] in a line: Test of triboelectrification properties. Format: physicochemical. To be noted: for Decrease of potential retention rate: at 20 minutes later. Here is the method:
First, the sample was loaded into a levelled stainless steel petri dish having φ50 mm×a height of 15 mm, and then it was statically eliminated with a static eliminator (STABLO AP, manufactured by SHIMADZU CORPORATION). The surface potential of the sample was measured with a surface electrometer (SV-77A, manufactured by NIPPON STATIC CO., LTD.) that had previously been zero-point adjusted, to confirm that it was statically eliminated (within −1 to +1 kV). Next, the sample surface of the petri dish loaded with the sample was scraped back and forth 20 times with a stainless steel metal plate for 10 seconds to charge the sample surface. After that, the petri dish loaded with the charged sample was placed on a metal plate (30 cm×30 cm) connected with a ground wire. The surface potential of the sample was measured over time for 20 minutes with the above surface electrometer. The triboelectrification properties were evaluated from the initial surface potential. In addition, the retention rate was calculated from the surface potential after 20 minutes and the initial surface potential to evaluate charge attenuation properties. Note that the test was conducted in an electrostatic measurement chamber (Tabai ESPEC CORP.) set to 25° C. and 50% RH, and the surface potential measurement was conducted at a distance of 1 cm from the sample surface.

Data set [2] is described as follows: Karl Fischer moisture content measurement (volumetric titration method). Format: physicochemical. To be noted: atmosphere of 25° C., as obtained. Here is the method:
The moisture content rates of the hydrate crystals obtained in Production Examples 1 and 2, and the anhydrous crystals used as a raw material in Production Example 1 were measured with a Karl Fischer moisture meter (CA-310, manufactured by Nittoseiko Analytech Co., Ltd.). The test was conducted in conformance with the description in The Japanese Pharmacopoeia, 18th Edition, “2.48 Water Determination (Karl Fischer Method)”, Volumetric titration. The measurement was performed in an atmosphere of 25° C., with the conditions set to a forced delay time of 2 minutes after sample administration, a minimum amount to be titrated of 2 μL, and an end point voltage of 140 mV. More specifically, it was as follows. First, into a measuring flask, methanol for moisture measurement (Aquamicron Dehydrated Solvent GEX, manufactured by Mitsubishi Chemical Corporation) was loaded, and 30 mg of water was added thereto to titrate the mixture with a Karl Fischer reagent (Aquamicron SS-Z, manufactured by Mitsubishi Chemical Corporation). After titration, a titer (mg/mL) of the reagent was determined from the amount titrated. Next, about 0.1 g of a measurement sample was precisely weighed and added into the measuring flask to titrate the mixture with a Karl Fischer reagent. The moisture content (w/w %) in the sample was calculated from the amount titrated and the previously determined titer.

The test system of data set [3] is Trichophyton rubrum (ATCCMYA4607). The experiment in a line: Antifungal activity test, minimum inhibitory concentration (MIC100). Format: cell-based. To be noted: Table 21, same method as Test Example 12, read-out: Minimal fungicidal concentration (MFC100). On the procedure:
Trichophyton rubrum was cultured on a Sabouraud medium at 32° C. for 168 hours to form spores. Mycelia were peeled from a medium surface and collected into a tube, physiological saline solution (OTSUKA NORMAL SALINE; containing the equivalent of 9 g of sodium chloride in 1000 mL) was added thereto, and the entire mixture was mixed and dispersed with a disposable loop (Type 1 (1 μL)) to collect a spore suspension containing mycelia. The spore suspension containing mycelia was filtered through a cell strainer (+40 μm). Spores were collected from a filtrate by centrifugation (3500 rpm, 5 minutes), and washed twice with physiological saline to prepare a spore suspension (1×10^6 cells/mL). 10 μL of the spore suspension was inoculated into the Sabouraud medium to which the test compound dissolved in DMSO was added so as to have a predetermined concentration. Trichophyton rubrum was cultured at 32° C. for 72 hours, and then the presence or absence of the development of colonies was examined to determine a minimum inhibitory concentration (MIC100).
A minimum inhibitory concentration (MIC100) for Trichophyton rubrum (ATCCMYA4607) was determined in the same method as in Test Example 12 except that the hydrate crystal (Production Example 2) was used as the compound under test.

In the case of `Cc1ccc(-c2nc(C#N)[nH]c2Cl)cc1Cl` [Hydrate crystal (Production Example 1), 5-chloro-4-(3-chloro-4-methylphenyl)-1H-imidazole-2-carbonitrile], the “Karl Fischer moisture content” value in “Drying test” (0 days) is on record as 6.5%; in “Drying test” (14 days), 6.7%; in the data set “Drying test” (29 days), 6.7%; in the data set “Drying test” (38 days) it was 6.7%; in “Drying test” (53 days) it was 6.7%; in data set [2] (listed as hydrate crystal of Production Example 1), 6.6 wt %. The Moisture content was determined as 0.1% in “Moisture absorption test” (0 days), 6.7% in the data set “Moisture absorption test” (20 days) and 6.6% in “Moisture absorption test” (61 days). In addition, the Weight change was 6.4% in the data set “Moisture absorption test” (4 days); 6.4% in “Moisture absorption test” (7 days); 6.5% in the data set “Moisture absorption test” (14 days); 6.5% in “Moisture absorption test” (20 days); 6.5% in “Moisture absorption test” (29 days); 6.5% in the data set “Moisture absorption test” (40 days). Besides, in the data set “Moisture absorption test” (61 days), the Weight change is 6.5%. Also, the Electrification voltage is recorded as −3.00 kv in data set [1] (0 minutes after charging, 25° C. and 50% RH); −2.79 kv in data set [1] (20 minutes after charging, 25° C. and 50% RH). Besides, the “Decrease of potential retention rate” value in data set [1] (25° C. and 50% RH, listed as hydrate crystal of Production Example 1) is 7%. In addition, the Retention rate in data set [1] (surface potential after 20 minutes vs initial, 25° C. and 50% RH) is 93.0%.
As for `Cc1ccc(-c2nc(C#N)[nH]c2Cl)cc1Cl` [Hydrate crystal (Production Example 2), 5-chloro-4-(3-chloro-4-methylphenyl)-1H-imidazole-2-carbonitrile], the Electrification voltage is on record as −2.30 kv in data set [1] (0 minutes after charging; 25° C. and 50% RH; listed as Hydrate crystal Production Example 2)); −1.98 kv in data set [1] (20 minutes after charging; 25° C. and 50% RH; listed as Hydrate crystal Production Example 2)). For the same compound, in data set [1] (25° C. and 50% RH, listed as hydrate crystal of Production Example 2), the “Decrease of potential retention rate” value is 14%. Moreover, in data set [1] (surface potential after 20 minutes vs initial; 25° C. and 50% RH; listed as Hydrate crystal Production Example 2)), the Retention rate amounted to 86.1%. Besides, the MFC in data set [3] came to 5 µg/mL. Besides, the “Karl Fischer moisture content” value in data set [2] (listed as hydrate crystal of Production Example 2) turned out to be 6.7 wt %.
